Measured values: PubChem BioAssay AID1963845 (Molecular Pharmacology Branch, DTP, NCI, 2024)
Several values for one entry are separate records, joined by “and”; a condition that tells them apart may be missing. Equal values may be shown once.

Test system: 429239-143-T-J1-PDC complex spheroid viability
Test: Anticancer human tumor 429239-143-T-J1-PDC patient-derived small cell lung carcinoma cell line growth inhibition [POLQ]
Details: for viability, T/C: stronger effect = lower value
Description: Multicellular complex tumor spheroid response to Polymerase (POL) inhibitors (novobiocin, ART-558, RP6685) in combination with a variety of drugs and investigational agents in selected tumor cell lines
The POL inhibitors (novobiocin, ART-558, and RP6685) were evaluated both individually and in combination with standard of care and investigational anticancer small molecules within a complex spheroid model of solid tumors. . Complex spheroids include a stromal component modeled by human endothelial cells (HUVEC) and fibroblasts modeled by human mesenchymal stem cells (MSCs). The concentration ranges selected for each drug and investigational agent were based upon clinically achievable concentrations if the clinical Cmax of the agent was known.
Compounds. The drugs and investigational agents: novobiocin (NSC847541), ART-558 (NSC835418), RP-6685 (NSC848927), peposertib (NSC802822), ceralasertib (NSC780249), elimusertib (NSC800525), camonsertib (NSC841442), AZD-1390 (NSC803789), olaparib (NSC753686), talazoparib (NSC767125), rucaparib (NSC756644), sotorasib (NSC818433), MRTX-1133 (NSC836407), SN-38 (NSC673596), topotecan (NSC609699), epotoside (NSC141540), doxorubicin (NSC123127), gemcitabine (NSC613327), 5-fluorouracil (NSC19893), paclitaxel (NSC125973), vemurafenib (NSC761431), MSA-2 (NSC828583), SN-011 (NSC837082), adavosertib (NSC754352), prexasertib (NSC758257), carboplatin (NSC241240) and oxaliplatin (NSC266046), were obtained from the National Cancer Institute (NCI) Developmental Therapeutics Program Chemical Repository (21). The FDA-approved anticancer drug set is available from the Developmental Therapeutics Program at https://dtp.cancer.gov/organization/dscb/obtaining/. […] The stock solutions were prepared in dimethyl sulfoxide (DMSO, Sigma-Aldrich, St. Louis, MO, cat. D2650), except for the platinum compounds which were prepared in saline (Quality Biological, Gaithersburg, MD, cat. 114-055-101), at 800-fold the tested concentration and stored at -70 degrees C prior to their use. All drugs and investigational agents were tested over a range starting from a high concentration at or near the clinical Cmax and decreasing in half-log increments. If the clinical Cmax for an agent had not been determined, the highest concentration tested was 10 microM, except for SN-38, which was tested at a high concentration of 1 microM.
Cell Culture. All cells were maintained in an incubator at 37 degrees C and 5% CO2 with 95% humidity. The PDC lines were cultured according to standard operating procedures established by the NCI PDMR (https://pdmr.cancer.gov). Table 3 of the manuscript, lists the cell lines along with the number of the three cell types plated to form the mct-spheroids and media for tumor cell growth. After thawing, all PDC lines, except 997537-175-T-J1-PDC and 415267-285-R-J2-PDC, were cultured in Matrigel-coated flasks prepared with a working solution of 1X Ham's F-12 nutrient mix, without supplementation (Thermo Fisher Scientific, cat. 11765054), 100 U/mL penicillin-streptomycin (Thermo Fisher Scientific, cat. 15140122), and 2.5% Matrigel (Corning Inc., Corning, NY, cat. 354248) for the first three passages. The two PDC lines 997537-175-T-J1-PDC and 415267-285-R-J2-PDC were cultured on uncoated flasks. The 857933-349-R-J2-PDC line was cultured in 6C/Colon 1B media containing advanced DMEM/F-12 (Thermo Fisher Scientific, cat. 12634028), 10 mM HEPES (Thermo Fisher Scientific, cat. 15630080), 1X GlutaMAX supplement (Thermo Fisher Scientific, cat. 35050061), 0.1 mg/mL primocin (InvivoGen, San Diego, CA, cat. ant-pm-2), 10% defined fetal bovine serum, heat inactivated (HyClone Laboratories Inc., Logan, UT, cat. SH30070.03HI), 50% L-WRN conditioned media (ATCC, cat. CRL-3276), 1.25 mM N-Acetyl-L-cysteine (Sigma-Aldrich, cat. A9165), 10 mM nicotinamide (Sigma-Aldrich, cat. N0636), 1X B-27 supplement (Thermo Fisher Scientific, cat. 17504044), 1X N-2 supplement (Thermo Fisher Scientific, cat. […]
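Further: luminescence signal used as surrogate measure of viable cells; spheroids exposed to compounds for seven days before readout.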
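Wherever viability, T/C is given: 100% = DMSO vehicle control viability as luminescence relative to vehicle.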

`CCc1cc2c(N3CCc4c(cc(Cn5ccnc5)cc4-c4cn(C)nc4C(F)(F)F)C3=O)ccnc2c(OC)n1` was tested, and the viability, T/C (compound 0.0316 µM) was 91% and 106% and 101%, the viability, T/C (compound 0.1 µM) was 85.1% and 102% and 98.5% and the viability, T/C (compound 0.316 µM) was 75.5% and 95.9% and 87.7%. The viability, T/C (compound 1 µM) was 61.2% and 86.6% and 91.9%, the viability, T/C (compound 3.16 µM) was 55.3% and 83.3% and 73.6% and the viability, T/C (compound 10 µM) was 32.2% and 55.7% and 54.7%. For the same compound, the IC50 (curve of compound) was 3300 nM and > 10000 nM.
`Cc1cccc(N(C)C(=O)C2C(O)CCN2c2nc(C)cc(C(F)(F)F)c2C#N)c1` (configuration not stated) was tested, and the viability, T/C (compound 0.0316 µM) was 103% [middle of 13 runs], the viability, T/C (compound 0.1 µM) was 102% [middle of 13 runs] and the viability, T/C (compound 0.316 µM) was 98% [middle of 13 runs]. For the same compound, the viability, T/C (compound 1 µM) was 100% [middle of 13 runs], the viability, T/C (compound 3.16 µM) was 104% [middle of 13 runs] and the viability, T/C (compound 10 µM) was 106% [middle of 13 runs]. The IC50 (compound alone, run of 01/08/2024) was > 10000 nM and the IC50 (compound alone, run of 01/19/2024) was > 10000 nM.
Compound `C=CCn1c(=O)c2cnc(Nc3ccc(N4CCN(C)CC4)cc3)nc2n1-c1cccc(C(C)(C)O)n1` + Nc1ccc(C#CCN(C(=O)Cc2ncc(C(F)(F)F)cc2C(F)(F)F)c2ccc(F)cc2)nn1 has an IC50 (curve of first compound, second compound 0.0316 µM) of 584 nM, an IC50 (curve of first compound, second compound 0.1 µM) of 624 nM and an IC50 (curve of first compound, second compound 0.316 µM) of 599 nM. The IC50 (curve of first compound, second compound 1 µM) was 578 nM, the IC50 (curve of first compound, second compound 3.16 µM) was 576 nM and the IC50 (curve of first compound, second compound 10 µM) was 548 nM. For the same compound, the viability, T/C (second compound 0.0316 µM, first compound 0.00316 µM) was 95.7%, the viability, T/C (second compound 0.0316 µM, first compound 0.01 µM) was 97.4% and the viability, T/C (second compound 0.0316 µM, first compound 0.0316 µM) was 106%. For the same compound, the viability, T/C (second compound 0.0316 µM, first compound 0.1 µM) was 101%, the viability, T/C (second compound 0.0316 µM, first compound 0.316 µM) was 88.1% and the viability, T/C (second compound 0.0316 µM, first compound 1 µM) was 16.3%. It also gave a viability, T/C (second compound 0.1 µM, first compound 0.00316 µM) of 99.1%, a viability, T/C (second compound 0.1 µM, first compound 0.01 µM) of 103% and a viability, T/C (second compound 0.1 µM, first compound 0.0316 µM) of 96.6%. The viability, T/C (second compound 0.1 µM, first compound 0.1 µM) was 103%, the viability, T/C (second compound 0.1 µM, first compound 0.316 µM) was 95% and the viability, T/C (second compound 0.1 µM, first compound 1 µM) was 18.7%. It also gave a viability, T/C (second compound 0.316 µM, first compound 0.00316 µM) of 106%, a viability, T/C (second compound 0.316 µM, first compound 0.01 µM) of 110% and a viability, T/C (second compound 0.316 µM, first compound 0.0316 µM) of 108%. The viability, T/C (second compound 0.316 µM, first compound 0.1 µM) was 101%, the viability, T/C (second compound 0.316 µM, first compound 0.316 µM) was 94% and the viability, T/C (second compound 0.316 µM, first compound 1 µM) was 15.2%. For the same compound, the viability, T/C (second compound 1 µM, first compound 0.00316 µM) was 111%, the viability, T/C (second compound 1 µM, first compound 0.01 µM) was 109% and the viability, T/C (second compound 1 µM, first compound 0.0316 µM) was 97.8%. For the same compound, the viability, T/C (second compound 1 µM, first compound 0.1 µM) was 105%, the viability, T/C (second compound 1 µM, first compound 0.316 µM) was 89.3% and the viability, T/C (second compound 1 µM, first compound 1 µM) was 14%. It also gave a viability, T/C (second compound 3.16 µM, first compound 0.00316 µM) of 109%, a viability, T/C (second compound 3.16 µM, first compound 0.01 µM) of 101% and a viability, T/C (second compound 3.16 µM, first compound 0.0316 µM) of 100%. The viability, T/C (second compound 3.16 µM, first compound 0.1 µM) was 103%, the viability, T/C (second compound 3.16 µM, first compound 0.316 µM) was 90.3% and the viability, T/C (second compound 3.16 µM, first compound 1 µM) was 12.9%. The viability, T/C (second compound 10 µM, first compound 0.00316 µM) was 106%, the viability, T/C (second compound 10 µM, first compound 0.01 µM) was 99.7% and the viability, T/C (second compound 10 µM, first compound 0.0316 µM) was 122%. It also gave a viability, T/C (second compound 10 µM, first compound 0.1 µM) of 101%, a viability, T/C (second compound 10 µM, first compound 0.316 µM) of 84% and a viability, T/C (second compound 10 µM, first compound 1 µM) of 13.3%.
